Values after ≈ are worked out from the molar mass of the structure shown. Like-named read-outs stand apart in the source and are kept apart here. Marks after values point to notes of the source that are not given here.
Columns and labels:
E. coli ATCC25922 = assay: MIC determination on E. coli ATCC25922 (microdilution, resazurin); assay type: cell-based, Escherichia coli
[1] = system: L. donovani intramacrophage amastigotes; assay: In vitro antileishmanial evaluation on intramacrophage amastigotes (RAW 264.7 infected, SYBR Green); assay type: cell-based, Leishmania donovani; conditions: for SI (Selectivity Index): CC50 (macrophage RAW 264.7)/IC50 (intramacrophage form of L. donovani); for IC50: read-out: L. donovani Intramacrophage Amastigote IC50 ± SD
Method: In vitro antileishmanial evaluation on intramacrophage amastigotes. RAW 264.7 macrophages were infected with L. donovani axenic amastigotes according to a ratio of 10 parasites per macrophage. […] The in vitro treatment was applied 24 h post-infection, and the treatment duration was 48 h. […] The activity of the compounds is expressed as IC50, calculated using the ICEstimator version 1.2 software. Miltefosine was used as the reference drug.

S. aureus ATCC25923 = assay: MIC determination on S. aureus ATCC25923 (microdilution, resazurin); assay type: cell-based, Staphylococcus aureus
[2] = system: Mycobacterium tuberculosis H37Rv; assay: MIC determination for Mycobacterium tuberculosis H37Rv (REMA); assay type: cell-based; conditions: for MIC: read-out: M. tuberculosis H37Rv MIC; for MIC90: read-out: minimum inhibitory concentration (MIC90) on M. tuberculosis H37Rv
[3] = system: L. donovani axenic amastigotes (LV9); assay: In vitro antileishmanial evaluation on L. donovani axenic amastigotes (SYBR Green); assay type: cell-based, Leishmania donovani; conditions: read-out: L. donovani Axenic Amastigote IC50 ± SD
Method: L. donovani (MHOM/ET/67/HU3, also called LV9) promastigotes and axenic amastigotes were maintained according to the protocols previously described.
In vitro antileishmanial evaluation on L. donovani axenic amastigotes. This evaluation was performed using the SYBR Green method as previously described. IC50 values were calculated using the ICEstimator version 1.2 software (http://www.antimalarial-icestimator.net/runregression1.2.htm, accessed on 5 April 2023). Miltefosine was used as the reference drug.

S. aureus ATCC29213 = assay: MIC determination on S. aureus ATCC29213; assay type: cell-based, Staphylococcus aureus; conditions: value in parentheses
[4] = Escherichia coli, ATCC25922, 24 h, value outside parentheses, read-out: E. coli ATCC25922 MIC
[5] = Leishmania donovani, RAW264.7, RAW 264.7 macrophages infected, treatment 48 h
[6] = Staphylococcus aureus, ATCC25923, 24 h, value outside parentheses, read-out: S. aureus ATCC25923 MIC
[7] = Mycobacterium tuberculosis, H37RV, 168 h, REMA, 7 days
[8] = Leishmania donovani, LV9 axenic amastigote forms
[9] = Escherichia coli, ATCC25922, value outside parentheses, read-out: E. coli ATCC25922 MIC
[10] = value outside parentheses, read-out: E. coli ATCC25922 MIC
[11] = Staphylococcus aureus, ATCC25923, value outside parentheses, read-out: S. aureus ATCC25923 MIC
[12] = value outside parentheses, read-out: S. aureus ATCC25923 MIC
[13] = Mycobacterium tuberculosis, H37RV, range for the active compounds
[14] = Staphylococcus aureus, ATCC29213

Compound	SI (Selectivity Index) [1]	IC50 [1, 5] [µM]	melting point [°C]	MIC [2, 7] [µM]	IC50 [3, 8] [µM]	MIC (E. coli ATCC25922; [9]) [µM]	MIC (S. aureus ATCC25923; [11]) [µM]	other results
O=[N+]([O-])c1ccc(-c2ccc(/C=N/Nc3nccc(C(F)(F)F)n3)o2)cc1 [Compound 14, 2-[(2E)-2-{[5-(4-Nitrophenyl)furan-2-yl]methylidene}hydrazin-1-yl]-4-(trifluoromethyl) pyrimidine]	>8	11.9 ± 1.1	212.4 to 214.2	> 100	2.9 ± 0.2	–	–	MIC (E. coli ATCC25922; [4]): > 669 µM; MIC (S. aureus ATCC25923; [6]): > 669 µM
NNC(=O)c1ccncc1 [Isoniazid, reference compound]	–	–	–	0.4 (≈ 0.0549 µg/mL)	–	–	–	–
O=C(N/N=C/C=C/c1ccc([N+](=O)[O-])o1)c1ccncc1 [Compound 3, N′-[(1E,2E)-3-(5-Nitro-2-furyl)-2-propen-1-ylidene]isonicotinohydrazide]	>200	0.5 ± 0.1	252.1 to 254	1 (≈ 0.286 µg/mL)	0.6 ± 0.1	28 (≈ 8.01 µg/mL)	1.75 (≈ 0.501 µg/mL)	MIC (E. coli ATCC25922; [10]): 28 µM (≈ 8.01 µg/mL); MIC (S. aureus ATCC25923; [12]): 1.75 µM (≈ 0.501 µg/mL); MIC90 [2, 13]: 0.6 to 7.4 µM (≈ 0.172 to 2.12 µg/mL); MIC (S. aureus ATCC29213; [14]): 7 µM (≈ 2 µg/mL); MIC (S. aureus ATCC29213): 7 µM (≈ 2 µg/mL)
O=C(N/N=C/c1ccc(-c2ccc([N+](=O)[O-])cc2)o1)c1ccncc1 [Compound 8, N′-{(E)-[5-(4-Nitrophenyl)-2-furyl]methylene}isonicotinohydrazide]	>2	–	–	–	–	–	–	MIC (E. coli ATCC25922; Escherichia coli, ATCC25922, read-out: E. coli ATCC25922 MIC): > 761 µM; IC50 ([1]; Leishmania donovani, RAW264.7, 48 h): 36.2 ± 1.4 µM; MIC (S. aureus ATCC25923; Staphylococcus aureus, ATCC25923, read-out: S. aureus ATCC25923 MIC): > 761 µM; MIC ([2]; Mycobacterium tuberculosis, H37RV, 168 h): 0.9 µM (≈ 0.303 µg/mL); MIC90 ([2]; Mycobacterium tuberculosis, H37RV): 0.6 to 7.4 µM (≈ 0.202 to 2.49 µg/mL); IC50 ([3]; Leishmania donovani): 16.2 ± 1.2 µM
COc1cc(/C=N/NC(=O)c2ccncc2)ccc1O [Compound 1, N′-[(E)-(4-Hydroxy-3-methoxyphenyl)methylene]isonicotinohydrazide]	>2.5	40.2 ± 3.1	–	0.6 (≈ 0.163 µg/mL)	24.9 ± 2.9	> 944	> 944	MIC90 [2, 13]: 0.6 to 7.4 µM (≈ 0.163 to 2.01 µg/mL)
O=[N+]([O-])c1ccc(-c2ccc(/C=N/Nc3nc4ccccc4s3)o2)cc1 [Compound 10, 2-[(2E)-2-{[5-(4-Nitrophenyl)-2-furyl]methylene}hydrazino]-1,3-benzothiazole]	–	5.8 ± 1	271.9	> 100	0.7 ± 0.1	> 703	> 703	–
O=[N+]([O-])c1ccc(-c2ccc(/C=N/Nc3nc4ccc(Cl)cc4o3)o2)cc1 [Compound 16, 6-chloro-2-[(2E)-2-{[5-(4-nitrophenyl)furan-2-yl]methylidene}hydrazin-1-yl]-1,3-benzoxazole]	–	> 100	190.9	> 100	> 100	–	–	MIC (E. coli ATCC25922; [4]): > 828 µM; MIC (S. aureus ATCC25923; [6]): > 828 µM
O=[N+]([O-])c1ccc(-c2ccc(/C=N/Nc3ccc(Br)cn3)o2)cc1 [Compound 13, 5-Bromo-2-[(2E)-2-{[5-(4-nitrophenyl)furan-2-yl]methylidene}hydrazin-1-yl]pyridine]	–	> 100	–	> 100	54.3 ± 4.5	> 661	> 661	–
CCCCCCCCCCCCCCCCOP(=O)([O-])OCC[N+](C)(C)C [Miltefosine, reference compound]	9 ^a	2.2 ± 0.3	–	–	1.5 ± 0.3	–	–	–
O=[N+]([O-])c1ccc(/C=C/C=N/NN2Cc3ccccc3C=N2)o1 [Compound 4, 2-{(2E)-2-[(2E)-3-(5-Nitro-2-furyl)-2-propen-1-ylidene]hydrazino}phthalazine]	>166	0.6 ± 0.1	–	129 (≈ 40.2 µg/mL)	1.9 ± 0.3	> 828	> 828	–
O=[N+]([O-])c1ccc(-c2ccc(/C=N/Nc3nncc4ccccc34)o2)cc1 [Compound 9, 1-[(2E)-2-{[5-(4-Nitrophenyl)-2-furyl]methylene}hydrazino]phthalazine]	>333	0.3 ± 0.1	239.5 to 241.5	> 100	0.2 ± 0.1	> 711	> 711	–
[H]/N=C(/N)N[C@H]1[C@H](O)[C@@H](O)[C@H](O[C@@H]2O[C@@H](C)[C@](O)(C=O)[C@H]2O[C@@H]2O[C@@H](CO)[C@H](O)[C@@H](O)[C@@H]2NC)[C@@H](N/C(N)=N\[H])[C@@H]1O [Streptomycin, reference compound]	–	–	–	0.4 (≈ 0.233 µg/mL)	–	–	–	–
O=C1CSC(=S)N1/N=C/C=C/c1ccc([N+](=O)[O-])o1 [Compound 6, 3-{(E)-[(2E)-3-(5-Nitro-2-furyl)-2-propen-1-ylidene]amino}-2-thioxo-1,3-thiazolidin-4-one]	>125	0.8 ± 0.1	–	4.2 (≈ 1.25 µg/mL)	0.7 ± 0.1	> 861	13 (≈ 3.87 µg/mL)	MIC (S. aureus ATCC25923; [12]): 13 µM (≈ 3.87 µg/mL); MIC90 [2, 13]: 0.6 to 7.4 µM (≈ 0.178 to 2.2 µg/mL); MIC (S. aureus ATCC29213; [14]): 7 µM (≈ 2.08 µg/mL); MIC (S. aureus ATCC29213): 7 µM (≈ 2.08 µg/mL)
O=[N+]([O-])c1ccc(/C=C/C=N/Nc2nc3ccccc3s2)o1 [Compound 5, 2-{(2E)-2-[(2E)-3-(5-Nitro-2-furyl)-2-propen-1-ylidene]hydrazino}-1,3-benzothiazole]	>8	12.4 ± 1.2	243.1	1 (≈ 0.314 µg/mL)	2.3 ± 0.3	> 814	> 814	MIC90 [2, 13]: 0.6 to 7.4 µM (≈ 0.189 to 2.33 µg/mL)
O=C(N/N=C/c1ccc(-c2ccc([N+](=O)[O-])cc2)o1)OCc1ccccc1 [Compound 17, N′-[(E)-[5-(4-nitrophenyl)furan-2-yl]methylidene](benzyloxy)carbohydrazide]	–	–	–	–	–	–	–	MIC (E. coli ATCC25922; [10]): >701 µM; IC50 ([1]; RAW 264.7 macrophages infected, treatment 48 h): 32.4 ± 2.8 µM; MIC (S. aureus ATCC25923; [12]): >701 µM; MIC ([2]; REMA, 7 days): >100 µM; IC50 ([3]; LV9 axenic amastigote forms): 12.2 ± 1.6 µM
O=C(O)c1cn(C2CC2)c2cc(N3CCNCC3)c(F)cc2c1=O [Ciprofloxacin, reference compound]	–	–	–	–	–	0.75 (≈ 0.249 µg/mL)	3 (≈ 0.994 µg/mL)	MIC (S. aureus ATCC29213; [14]): 5 µM (≈ 1.66 µg/mL)
O=C1CSC(=S)N1/N=C/c1ccc(-c2ccc([N+](=O)[O-])cc2)o1 [Compound 11, 3-[(E)-{[5-(4-Nitrophenyl)-2-furyl]methylene}amino]-2-thioxo-1,3-thiazolidin-4-one]	–	> 100	175	> 100	5.2 ± 0.3	> 737	> 737	–
O=[N+]([O-])c1ccc(-c2ccc(/C=N/Nc3cnccn3)o2)cc1 [Compound 15, 2-[(2E)-2-{[5-(4-nitrophenyl)furan-2-yl]methylidene}hydrazin-1-yl]pyrazine]	>4	23.3 ± 3.1	272.2 to 274	> 100	9.9 ± 0.8	–	–	MIC (E. coli ATCC25922; [4]): > 678 µM; MIC (S. aureus ATCC25923; [6]): > 678 µM
COc1cc(/C=N/NC(=O)c2ccc(O)cc2)ccc1O [Compound 2, 4-hydroxy-N′-[(E)-(4-hydroxy-3-methoxyphenyl)methylidene]benzohydrazide]	>17	5.9 ± 0.9	–	> 100	2.1 ± 0.1	> 894	> 894	–

Reference: paper PMC10343660, “Mechanochemical Studies on Coupling of Hydrazines and Hydrazine Amides with Phenolic and Furanyl Aldehydes—Hydrazones with Antileishmanial and Antibacterial Activities” (Molecules, 2023)
